One series concerns the target E. Coli LeuRS (Escherichia coli (strain K12), UniProt P07813). Put plainly: Study 2 - Isothermal titration calorimetry (ITC). In kind it is binding. To be noted: 25° C., pH 7.5, mean ± SD. The procedure: Escherichia coli BL21(DE3) cells transformed with plasmid pQE-60 containing the open-reading frame sequence of one targeted aaRS (i.e., LeuRS) were induced with 1 mM IPTG (isopropyl β-D-1-thiogalactopyranoside) for 3 hours at 37° C. Bacterial cells were harvested and lysed with 20 mM HEPES (4-(2-hydroxyethyl)-1-piperazinylethane-sulfonic acid) (pH 7.5), 300 mM NaCl, 15 mM imidazole and 1 mM DTT (1,4-dithio-D-threitol). The pathogenic aaRS was first purified by nickel affinity standard chromatography. The eluted protein was concentrated and then further purified by gel filtration using 50 mM HEPES (pH 7.5), 150 mM NaCl buffer.
ITC studies were carried out using a Microcal ITC200 instrument (GE Healthcare). Protein concentration was determined by spectrophotometry by measuring the absorbance at 280 nm using a theoretical molar extinction coefficient of 169,140 M^−1cm^−1. Ligand stock solutions were prepared in DMSO at 62.5 mM concentration. The titrations were performed at 25° C. with 7.5-100 μM E. Coli LeuRS in 50 mM HEPES, 150 mM NaCl, pH 7.5 buffer containing 1% DMSO (v/v). The protein solution in the 280 μL sample cell was titrated with the inhibitor solution (diluted to 75-3000 μM in the same buffer as the protein) using 1-2 μL injections every 120-140 seconds. All titrations were repeated at least two times. To correct for heats of dilution and mixing, the final baseline consisting of small peaks of identical size at the end of each experiment was subtracted. The experimental data were fitted to a theoretical titration curve (one site model) using MicroCal Origin 7 SR4 software.
Note that Compounds R-4.1 and S-4.1 (in Table 15, below) correspond to Compounds V-i and V-ii (in Tables 13 and 14, above), respectively.

Series [1] relates to Acinetobacter baumannii B1931 clinical isolate. Description: Study 4 - MIC by broth micro-dilution (CLSI). In kind it is cell-based. To be noted: Acinetobacter baumannii. As for the experimental part: (§1) Minimum Inhibitory Concentrations (MICs) were determined by the broth micro-dilution method performed according to Clinical Laboratory Standards Institute guidelines. For testing, 5 mg/mL DMSO solutions were prepared by dissolving solids in DMSO. Standard antibiotics were prepared according to CLSI guidelines as 5 mg/mL stock solutions. Upon DMSO stock solutions preparation, the working solutions in MH media were prepared by adding 38.4 μL of stock solution to 1461.6 μL of MH media. Out of these working solutions 100 μL were transferred to wells in the third column of 96-well assay plates. Assay plates were previously filled with 50 μL of MH media in all wells except for the wells in the third column. Upon compounds and antibiotics addition, 50 μL was transferred from the third to the fourth column, then from the fourth to the fifth and so on.
(§2) MIC value was determined by visual inspection of bacterial growth within 96-well plates. The first column in which there was no visible growth of bacteria was determined as MIC value for compound or antibiotic tested in that particular row. ATCC strains were used as reference strains for which there is a determined value of MIC values for standard antibiotics. The assay is considered valid when MIC values for standard antibiotics are within CLSI designated range for ATCC strain tested.
Background: In broth dilution the organism is exposed to a series of concentrations in liquid medium.

The test system of series [2] is Klebsiella pneumoniae ATCC 700603. Description: Study 4 - MIC by broth micro-dilution (CLSI). In kind it is cell-based. The settings on record: Klebsiella pneumoniae, ATCC700603. The procedure: as §1, §2
Series [3] relates to Pseudomonas aeruginosa ATCC 27853. Put plainly: Study 4 - MIC by broth micro-dilution (CLSI). In kind it is cell-based. To be noted: Pseudomonas aeruginosa, ATCC27853. The procedure: as §1, §2
Series [4] has as its system Haemophilus influenzae ATCC 49247. Description: Study 4 - MIC by broth micro-dilution (CLSI). In kind it is cell-based. The settings on record: Haemophilus influenzae, ATCC49247. The procedure: as §1, §2
Series [5] relates to Enterobacter cloacae B1966 clinical isolate. Put plainly: Study 4 - MIC by broth micro-dilution (CLSI). The series is classed as cell-based. The settings on record: Enterobacter cloacae. The procedure:
as §1, §2

Series [6] concerns Escherichia coli ATCC 25922. Description: Study 4 - MIC by broth micro-dilution (CLSI). The series is classed as cell-based. The settings on record: Escherichia coli, ATCC25922. As for the experimental part: as §1, §2
A short description of series [7]: Human cell viability (cytotoxicity), ATP levels by CellTiter-Glo. The series is classed as cell-based. The settings on record: HepG2 cells (ATCC HB-8065), 24 hours incubation, read-out: IC50 (μg/mL), Cytotoxicity in HepG2 ATCC HB-8065 Cell Line. As for the experimental part:
Compounds were assessed for potential non-specific cytotoxic effects against a human hepatic cell line (HepG2 ATCC HB-8065). 96-well plates were seeded with HepG2 cells in concentration of 15,000 cells per well in 100 μL of MEM growth media completed with 1% NEAA and 1% sodium pyruvate. Border wells were filled with 100 μL of sterile PBS. Two days upon cells incubation, the compounds were added. Compound dilutions were prepared in 96-well V-bottom plate in pure DMSO. Growth media from 5 plates were aspirated and replaced with 98.7 μL of fresh growth media. 1.28 μL of compounds prepared in V-bottom plates were transferred with multichannel pipette into test plates (78.1× dilution). Final DMSO concentration was 1.28% per well. In control wells, 1.28 μL of DMSO was added in 98.7 μL of media. Compounds were tested in duplicates. Cells were incubated with compounds for 24 hours when cell viability was assessed by measuring ATP levels. ATP levels were measured by adding 50 μL of CellTiter-Glo reagent to each well and after 5 minutes of incubation luminescence was measured with SpectraMax i3. The potential effect of tested compounds on cell viability was determined by comparing the signal obtained in presence of different concentrations of the compounds with those obtained in the presence of DMSO only. The potential effects were then calculated and presented as IC50 values (μg/mL).
In general terms: ATP-based viability assays read luminescence as a measure of living cells.

In series [8] the test system is Escherichia coli ATCC 25922 TolC deficient mutant (E. coli EFFLUX del). Put plainly: microbe, parasite or virus in culture. In kind it is cell-based. The settings on record: Escherichia coli, ATCC25922. The procedure:
as §1, §2

Where [9] appears, read: G = H. influenzae ATCC 49247, read-out: MIC.

The results in this text go back to US11802110B2, “2-amino-N-(arylsulfinyl)-acetamide compounds as inhibitors of bacterial aminoacyl-tRNA synthetase” (priority 2016, dated 2023).

In brackets after ≈: the same amount, converted by molar mass. Read-outs that look alike come from different tables or passages of the source. Where only a bound is given, the exact number is not on record here.

Chain of E. Coli LeuRS (P07813 whole entry): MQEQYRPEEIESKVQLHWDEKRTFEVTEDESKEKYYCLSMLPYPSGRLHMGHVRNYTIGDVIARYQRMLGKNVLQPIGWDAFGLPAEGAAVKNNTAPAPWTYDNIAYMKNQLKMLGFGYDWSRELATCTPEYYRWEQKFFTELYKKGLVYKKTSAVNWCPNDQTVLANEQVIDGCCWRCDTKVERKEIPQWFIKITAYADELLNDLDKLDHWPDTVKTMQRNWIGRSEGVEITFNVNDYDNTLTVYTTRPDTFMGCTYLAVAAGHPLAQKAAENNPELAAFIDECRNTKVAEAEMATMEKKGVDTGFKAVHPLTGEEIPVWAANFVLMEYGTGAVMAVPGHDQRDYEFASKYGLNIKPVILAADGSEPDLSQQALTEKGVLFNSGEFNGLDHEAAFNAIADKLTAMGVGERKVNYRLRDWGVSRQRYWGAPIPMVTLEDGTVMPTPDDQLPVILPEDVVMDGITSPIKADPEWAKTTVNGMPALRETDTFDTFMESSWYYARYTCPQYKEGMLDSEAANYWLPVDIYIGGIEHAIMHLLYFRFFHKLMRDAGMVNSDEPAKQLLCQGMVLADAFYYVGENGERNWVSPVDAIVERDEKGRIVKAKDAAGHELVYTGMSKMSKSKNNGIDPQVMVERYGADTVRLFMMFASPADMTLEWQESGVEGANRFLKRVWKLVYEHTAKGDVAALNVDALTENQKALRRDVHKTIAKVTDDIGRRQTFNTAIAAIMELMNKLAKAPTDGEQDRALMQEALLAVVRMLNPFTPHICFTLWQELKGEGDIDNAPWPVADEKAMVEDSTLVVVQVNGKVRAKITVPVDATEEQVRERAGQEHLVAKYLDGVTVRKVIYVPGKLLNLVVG

What is called Kd is a measure of binding affinity in units of concentration. A low value points to tighter binding. Molecule `C#Cc1cccc([S+]([O-])NC(=O)C(N)CC(C)C)c1` (stereo not drawn) [4.27] returned a Kd at E. Coli LeuRS of 3.69 ± 0.05 nM. Further, at E. Coli LeuRS, the ΔG was -11.50 ± 0.00 kcal/mol. The molecule also registered a ΔH on E. Coli LeuRS of -8.71 ± 1.08 kcal/mol. The MIC in series [1] is above 64 µg/mL; in series [2], 32 µg/mL (≈ 115 µM); in [3] it was above 64 µg/mL; in [4] (setting [9]), 16 µg/mL (≈ 57.5 µM); in [5], 8 µg/mL (≈ 28.7 µM); in series [6], 4 µg/mL (≈ 14.4 µM). Further, in [8], the MIC turned out to be 2 µg/mL (≈ 7.18 µM). In addition, in series [7], the IC50 at 24 h is above 64 µg/mL.

`CC(C)CC(N)C(=O)N[S+]([O-])c1cc(F)cc(F)c1` (stereo not drawn) [4.35] registered a dissociation constant (Kd) at E. Coli LeuRS of 16.4 ± 2.72 nM. This molecule registered a ΔG at E. Coli LeuRS of -10.63 ± 0.10 kcal/mol. Moreover, on E. Coli LeuRS, the ΔH was -9.97 ± 0.10 kcal/mol. The MIC was above 64 µg/mL in series [1]; above 64 µg/mL in series [2]; above 64 µg/mL in series [3]; above 64 µg/mL in [4] (setting [9]); 64 µg/mL (≈ 220 µM) in [5]; 16 µg/mL (≈ 55.1 µM) in series [6]. Besides, the MIC in series [8] worked out at 16 µg/mL (≈ 55.1 µM). In addition, the IC50 at 24 h in series [7] was above 64 µg/mL.

Take `C=Cc1cccc([S+]([O-])NC(=O)C(N)CC(C)C)c1` (stereo not drawn) [4.16]: binding at E. Coli LeuRS was put at a Kd of 27.2 ± 8.44 nM. Moreover, the ΔG on E. Coli LeuRS is -10.34 ± 0.19 kcal/mol. Moreover, the ΔH on E. Coli LeuRS was -4.89 ± 0.08 kcal/mol. In addition, the MIC in [1] is 32 µg/mL (≈ 114 µM); in series [2], above 64 µg/mL; in series [3], above 64 µg/mL; in series [4] (setting [9]), 32 µg/mL (≈ 114 µM); in [5], 32 µg/mL (≈ 114 µM); in [6], 8 µg/mL (≈ 28.5 µM). Also, the MIC in series [8] was 8 µg/mL (≈ 28.5 µM). The IC50 at 24 h in series [7] was above 64 µg/mL.

On to `CC(C)CC(N)C(=O)N[S+]([O-])c1cc(Cl)cc(Cl)c1` (stereo not drawn) [4.36], for which the MIC in series [1] was above 64 µg/mL; in series [2], above 64 µg/mL; in series [3] it was above 64 µg/mL; in series [4] (setting [9]) it was above 64 µg/mL; in series [5] it was above 64 µg/mL; in [6] it was 64 µg/mL (≈ 198 µM). This molecule also gave an MIC in series [8] of 64 µg/mL (≈ 198 µM). The IC50 at 24 h in [7] amounted to 44 µg/mL (≈ 136 µM).

At E. Coli LeuRS, `CC(C)C[C@H](N)C(=O)N[S@+]([O-])c1ccccc1` (single isomer, unassigned) [R-4.1, 2,2,2-trifluoroacetate] showed a Kd of 3.86 ± 0.24 nM. Moreover, at E. Coli LeuRS, the ΔG is -11.48 ± 0.04 kcal/mol. At E. Coli LeuRS, the ΔH was -11.92 ± 0.34 kcal/mol. The MIC in [1] amounted to 8 µg/mL (≈ 31.5 µM); in series [2] it was 8 µg/mL (≈ 31.5 µM); in [3], 32 µg/mL (≈ 126 µM); in [4] it was 16 µg/mL (≈ 62.9 µM); in series [5], 4 µg/mL (≈ 15.7 µM); in series [6] it was 2 µg/mL (≈ 7.86 µM). The MIC in [8] was 2 µg/mL (≈ 7.86 µM). For the same molecule, the IC50 at 24 h in series [7] is above 64 µg/mL.

As for `CC(C)CC(N)C(=O)N[S+]([O-])c1ccccc1F` (stereo not drawn) [4.31], binding on E. Coli LeuRS was put at a Kd of 6.78 ± 1.73 nM. The molecule also registered a ΔG on E. Coli LeuRS of -11.15 ± 0.16 kcal/mol. In addition, the ΔH at E. Coli LeuRS is -12.97 ± 2.04 kcal/mol. The MIC in series [1] is 4 µg/mL (≈ 14.7 µM); in [2] it was 2 µg/mL (≈ 7.34 µM); in series [3], 32 µg/mL (≈ 117 µM); in series [4] (setting [9]) it was 8 µg/mL (≈ 29.4 µM); in series [5], 4 µg/mL (≈ 14.7 µM); in series [6], 2 µg/mL (≈ 7.34 µM). Further, the MIC in series [8] is 2 µg/mL (≈ 7.34 µM). Further, the IC50 at 24 h in [7] was above 64 µg/mL.
